Results taken from the supplement of paper PMC10307832.

Tests used:
Experiment in all cases: relative viability (nuclei count vs DMSO), 5 days (fraction); higher = more cells survive
BEN = test system: BEN
Procedure, shortened: (§1)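 Nuclei were stained with Hoechst during a one-step fixation (final 0.05% Triton X-100, 1% formaldehyde, 1 ug/ml Hoechst) carried out 5 days after dosing, then counted on 4× images. The cells, lung cancer lines in 1536-well plates, had been dosed by pin tool the day after seeding with one drug alone or a fixed anchor-drug dose plus five library-drug doses (not always all listed) in √10 steps. Relative viability is the nuclei count in treated wells divided by that in vehicle wells, and each value is the median of duplicate plates.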

CAL-12T = test system: CAL-12T
Procedure, shortened: as §1

COR-L23 = test system: COR-L23
Procedure, shortened: as §1

HCC-366 = test system: HCC-366
Procedure, shortened: as §1

LOU-NH91 = test system: LOU-NH91
Procedure, shortened: as §1

LU99A = test system: LU99A
Procedure, shortened: as §1

NCI-H1355 = test system: NCI-H1355
Procedure, shortened: as §1

NCI-H1437 = test system: NCI-H1437
Procedure, shortened: as §1

NCI-H1563 = test system: NCI-H1563
Procedure, shortened: as §1

NCI-H1650 = test system: NCI-H1650
Procedure, shortened: as §1

NCI-H1651 = test system: NCI-H1651
Procedure, shortened: as §1

NCI-H1734 = conditions: first compound 0.04 µM
Procedure, shortened: as §1

Compound: Cc1sc2c(c1C)C(c1ccc(Cl)cc1)=N[C@@H](CC(=O)OC(C)(C)C)c1nnc(C)n1-2 [JQ1] + Nc1nc2[nH]cc(CCc3ccc(C(=O)N[C@@H](CCC(=O)O)C(=O)O)cc3)c2c(=O)[nH]1 [Pemetrexed] (partner 0.2 µM)
- relative viability (BEN; first compound 0.04 µM): 0.7
- relative viability (BEN; first compound 0.1265 µM): 0.523
- relative viability (BEN; first compound 0.4 µM): 0.67
- relative viability (BEN; first compound 1.265 µM): 0.518
- relative viability (BEN; first compound 4 µM): 0.384
- relative viability (CAL-12T; first compound 0.04 µM): 1.22
- relative viability (CAL-12T; first compound 0.1265 µM): 1.18
- relative viability (CAL-12T; first compound 0.4 µM): 1.08
- relative viability (CAL-12T; first compound 1.265 µM): 0.465
- relative viability (CAL-12T; first compound 4 µM): 0.249
- relative viability (COR-L23; first compound 0.04 µM): 0.21
- relative viability (COR-L23; first compound 0.1265 µM): 0.214
- relative viability (COR-L23; first compound 0.4 µM): 0.196
- relative viability (COR-L23; first compound 1.265 µM): 0.159
- relative viability (COR-L23; first compound 4 µM): 0.147
- relative viability (HCC-366; first compound 0.04 µM): 0.16
- relative viability (HCC-366; first compound 0.4 µM): 0.136
- relative viability (HCC-366; first compound 1.265 µM): 0.13
- relative viability (HCC-366; first compound 4 µM): 0.104
- relative viability (LOU-NH91; first compound 0.04 µM): 0.365
- relative viability (LOU-NH91; first compound 0.1265 µM): 0.387
- relative viability (LOU-NH91; first compound 0.4 µM): 0.354
- relative viability (LOU-NH91; first compound 1.265 µM): 0.334
- relative viability (LOU-NH91; first compound 4 µM): 0.362
- relative viability (LU99A; first compound 0.04 µM): 0.173
- relative viability (LU99A; first compound 0.4 µM): 0.167
- relative viability (LU99A; first compound 1.265 µM): 0.15
- relative viability (LU99A; first compound 4 µM): 0.153
- relative viability (NCI-H1355; first compound 0.04 µM): 1.05
- relative viability (NCI-H1355; first compound 0.1265 µM): 1.04
- relative viability (NCI-H1355; first compound 0.4 µM): 1.07
- relative viability (NCI-H1355; first compound 1.265 µM): 0.893
- relative viability (NCI-H1355; first compound 4 µM): 0.718
- relative viability (NCI-H1437; first compound 0.04 µM): 0.303
- relative viability (NCI-H1437; first compound 0.1265 µM): 0.309
- relative viability (NCI-H1437; first compound 0.4 µM): 0.244
- relative viability (NCI-H1437; first compound 1.265 µM): 0.201
- relative viability (NCI-H1437; first compound 4 µM): 0.208
- relative viability (NCI-H1563; first compound 0.04 µM): 0.698
- relative viability (NCI-H1563; first compound 0.1265 µM): 0.715
- relative viability (NCI-H1563; first compound 0.4 µM): 0.673
- relative viability (NCI-H1563; first compound 1.265 µM): 0.47
- relative viability (NCI-H1563; first compound 4 µM): 0.491
- relative viability (NCI-H1650; first compound 0.04 µM): 0.365
- relative viability (NCI-H1650; first compound 0.1265 µM): 0.293
- relative viability (NCI-H1650; first compound 0.4 µM): 0.335
- relative viability (NCI-H1650; first compound 1.265 µM): 0.202
- relative viability (NCI-H1650; first compound 4 µM): 0.183
- relative viability (NCI-H1651; first compound 0.04 µM): 0.589
- relative viability (NCI-H1651; first compound 0.1265 µM): 0.45
- relative viability (NCI-H1651; first compound 0.4 µM): 0.391
- relative viability (NCI-H1651; first compound 1.265 µM): 0.458
- relative viability (NCI-H1651; first compound 4 µM): 0.358
- relative viability (NCI-H1734): 0.358
